The target in one test is Cdk9 (Schizosaccharomyces pombe, UniProt Q96WV9, T120G). In words: radiometric kinase assay with [γ-32P]-ATP on GST-Spt5. The format is biochemical.
The target in the next test is Mcs6 (Schizosaccharomyces pombe, UniProt Q12126, L87G). Briefly: radiometric kinase assay with [γ-32P]-ATP on GST-Rpb1-CTD. In kind it is biochemical.
Mcs6, sequence (P36613 whole entry): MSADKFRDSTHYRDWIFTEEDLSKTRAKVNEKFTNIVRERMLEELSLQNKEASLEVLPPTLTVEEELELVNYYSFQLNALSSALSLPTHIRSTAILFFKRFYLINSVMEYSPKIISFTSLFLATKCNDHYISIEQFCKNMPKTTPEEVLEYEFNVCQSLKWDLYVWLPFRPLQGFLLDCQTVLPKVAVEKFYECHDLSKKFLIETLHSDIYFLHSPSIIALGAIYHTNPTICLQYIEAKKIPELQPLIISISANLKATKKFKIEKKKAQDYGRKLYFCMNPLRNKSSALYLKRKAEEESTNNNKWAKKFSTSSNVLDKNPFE
Mcs6, sequence (Q12126 whole entry, stated change not applied): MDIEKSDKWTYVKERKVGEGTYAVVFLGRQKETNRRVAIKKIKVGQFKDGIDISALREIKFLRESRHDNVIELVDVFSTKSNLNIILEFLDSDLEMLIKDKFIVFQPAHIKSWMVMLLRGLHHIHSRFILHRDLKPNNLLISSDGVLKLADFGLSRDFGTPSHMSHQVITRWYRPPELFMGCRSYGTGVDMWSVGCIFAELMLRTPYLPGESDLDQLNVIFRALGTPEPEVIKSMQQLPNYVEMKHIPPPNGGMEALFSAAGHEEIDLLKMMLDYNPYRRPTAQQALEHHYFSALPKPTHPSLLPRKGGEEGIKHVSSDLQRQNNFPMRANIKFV
Mcs6, sequence (O94684 whole entry, further chain): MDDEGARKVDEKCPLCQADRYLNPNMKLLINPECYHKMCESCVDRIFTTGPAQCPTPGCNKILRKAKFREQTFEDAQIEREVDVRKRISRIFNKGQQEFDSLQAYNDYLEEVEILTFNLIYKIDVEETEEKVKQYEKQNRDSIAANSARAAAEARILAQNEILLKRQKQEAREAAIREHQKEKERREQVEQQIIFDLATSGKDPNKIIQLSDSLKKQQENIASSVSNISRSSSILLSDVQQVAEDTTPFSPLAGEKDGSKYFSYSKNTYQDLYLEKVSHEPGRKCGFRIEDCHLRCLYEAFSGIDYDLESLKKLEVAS

Cdk9, sequence (O74880 whole entry): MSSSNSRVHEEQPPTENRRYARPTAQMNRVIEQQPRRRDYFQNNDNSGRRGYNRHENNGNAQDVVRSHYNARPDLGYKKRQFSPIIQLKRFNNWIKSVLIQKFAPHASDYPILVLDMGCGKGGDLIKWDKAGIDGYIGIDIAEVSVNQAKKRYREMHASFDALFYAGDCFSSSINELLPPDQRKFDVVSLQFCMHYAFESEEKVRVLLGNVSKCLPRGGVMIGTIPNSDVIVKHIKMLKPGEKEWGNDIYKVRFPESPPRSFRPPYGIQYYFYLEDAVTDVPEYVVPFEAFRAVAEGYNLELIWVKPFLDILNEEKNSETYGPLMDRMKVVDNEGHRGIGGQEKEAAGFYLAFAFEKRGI
Cdk9, sequence (O74627 whole entry, further chain): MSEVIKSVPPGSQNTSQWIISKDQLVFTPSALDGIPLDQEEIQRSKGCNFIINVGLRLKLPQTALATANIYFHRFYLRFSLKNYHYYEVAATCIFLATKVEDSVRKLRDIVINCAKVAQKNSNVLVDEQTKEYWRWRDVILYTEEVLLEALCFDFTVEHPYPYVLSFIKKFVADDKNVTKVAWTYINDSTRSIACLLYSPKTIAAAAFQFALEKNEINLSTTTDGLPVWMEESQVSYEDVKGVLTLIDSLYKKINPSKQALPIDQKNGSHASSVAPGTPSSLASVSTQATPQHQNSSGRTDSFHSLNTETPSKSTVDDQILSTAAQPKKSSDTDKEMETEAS
Cdk9, sequence (Q96WV9 whole entry, stated change not applied): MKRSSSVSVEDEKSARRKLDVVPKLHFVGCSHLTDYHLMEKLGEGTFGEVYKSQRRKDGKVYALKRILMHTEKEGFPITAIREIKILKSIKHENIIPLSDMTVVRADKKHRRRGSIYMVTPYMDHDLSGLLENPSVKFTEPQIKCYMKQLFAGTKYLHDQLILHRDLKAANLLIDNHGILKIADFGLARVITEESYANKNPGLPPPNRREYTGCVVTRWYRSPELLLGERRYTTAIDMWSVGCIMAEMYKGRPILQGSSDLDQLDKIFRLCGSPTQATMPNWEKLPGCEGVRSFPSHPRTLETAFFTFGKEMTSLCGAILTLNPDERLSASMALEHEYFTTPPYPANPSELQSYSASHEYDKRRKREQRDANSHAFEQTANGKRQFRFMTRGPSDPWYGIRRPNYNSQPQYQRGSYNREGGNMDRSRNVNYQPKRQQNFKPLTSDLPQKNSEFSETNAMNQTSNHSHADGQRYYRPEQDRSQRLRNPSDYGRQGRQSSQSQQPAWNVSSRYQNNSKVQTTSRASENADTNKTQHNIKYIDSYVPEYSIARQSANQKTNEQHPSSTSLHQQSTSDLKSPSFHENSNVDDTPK

Consider `Cc1cccc(Cc2nn(C(C)(C)C)c3ncnc(N)c23)c1` [3-MB-PP1], for which the half-inhibitory concentration (IC50) on Cdk9 was approximately 25 nM; on Mcs6, approximately 125 nM.
For the molecule `CC(C)(C)n1nc(Cc2cccc3ccccc23)c2c(N)ncnc21` [1-NM-PP1], the IC50 on Cdk9 was approximately 500 nM.

The values above are taken from publication PMC2693121 (Molecular cell, 2009).
